The compounds below were run against human mGluR2 (Homo sapiens (Human), UniProt Q14416) (assay: [35S]GTPγS binding assay (Affinity to mGluR2)). Conditions: cell membrane fraction of HEK293 cells stably expressing human mGluR2; glutamic acid 10 μM.
Format: biochemical
Description: (Preparation of Cell Membrane Fraction of HEK293 Cells Stably Expressing Human Metabotropic Glutamate Receptor 2 (mGluR2))
HEK293 cells stably expressing human mGluR2 and human glutamate transporter SLC1A3 were cultured in a Dulbecco's modified Eagle's medium with 10% fetal bovine serum (50 units/mL of penicillin, 50 μg/mL of streptomycin, 60 μg/mL of geneticin, 400 μg/mL of hygromycin B and 2 mM of glutamine) at 37° C. under 5% CO2. Confluent cell cultures were washed twice with PBS(−), and then scraped off with a cell scraper, and subjected to centrifugal separation at 4° C. and 1500 rpm for 5 minutes for collecting cells. The centrifuged sediment (cell pellet) was homogenized in a 20 mM HEPES buffer containing 10 mM EDTA (pH 7.4) by using sonicator and centrifuged at 4° C. and 1500×g for 30 minutes. The supernatant (soluble fraction) was subjected to the centrifugal separation at 4° C. and 40,000×g for 30 minutes, and thus, insoluble fraction was obtained. After additional centrifugally washing the obtained fraction with 20 mM HEPES buffer containing 10 mM EDTA (pH 7.4), the pellet was centrifugally suspended with a 20 mM HEPES buffer containing 0.1 mM EDTA, and the cell membrane fraction was obtained by the centrifugal separation at 4° C. and 40,000×g for 30 minutes. The thus obtained cell membrane fraction was suspended in a 20 mM HEPES buffer containing 0.1 mM EDTA in a protein concentration of 3 mg/mL, which was stored at −80° C.
([^35S]GTPγS Binding Assay)
The frozen cell membrane fraction prepared as described above was thawed before use, and the resultant was diluted with a buffer for a binding assay (final concentrations: 20 mM HEPES, 100 mM NaCl, 1 mM MgCl2, 3 μM GDP, 300 μg/mL saponin, 0.1% BSA). The compound of each example was added to a cell membrane fraction containing 1.8 to 3 μg/assay of membrane protein on a plate, followed by incubation at room temperature for 30 minutes. Thereafter, with glutamic acid (in a final concentration of 10 μM) added thereto, incubation was performed at room temperature for 15 minutes, and thereafter, [^35S]GTPγS (in a final concentration of 0.8 kBq) and 588 μg WGA-SPA beads were added thereto, followed by incubation at room temperature for 1 hour. After the incubation, the plate was subjected to the centrifugal separation at 2,500 rpm and room temperature, and then, membrane cell binding radioactivity was measured with a top count.
A [^35S]GTPγS binding amount obtained by performing the above-described reaction in the absence of glutamic acid was defined as nonspecific binding, and a difference from a [^35S]GTPγS binding amount obtained in the presence of glutamic acid was defined as specific binding. On the basis of ratios of inhibiting the specific binding at various concentrations of the compounds of the respective examples, inhibition curves were obtained. Concentrations of the compounds of the respective examples at which the specific [^35S]GTPγS binding amount was suppressed by 50% (IC50 values) were calculated on the basis of the inhibition curves and shown in Tables 8 and 9.

human mGluR2, sequence (Q14416 19-872): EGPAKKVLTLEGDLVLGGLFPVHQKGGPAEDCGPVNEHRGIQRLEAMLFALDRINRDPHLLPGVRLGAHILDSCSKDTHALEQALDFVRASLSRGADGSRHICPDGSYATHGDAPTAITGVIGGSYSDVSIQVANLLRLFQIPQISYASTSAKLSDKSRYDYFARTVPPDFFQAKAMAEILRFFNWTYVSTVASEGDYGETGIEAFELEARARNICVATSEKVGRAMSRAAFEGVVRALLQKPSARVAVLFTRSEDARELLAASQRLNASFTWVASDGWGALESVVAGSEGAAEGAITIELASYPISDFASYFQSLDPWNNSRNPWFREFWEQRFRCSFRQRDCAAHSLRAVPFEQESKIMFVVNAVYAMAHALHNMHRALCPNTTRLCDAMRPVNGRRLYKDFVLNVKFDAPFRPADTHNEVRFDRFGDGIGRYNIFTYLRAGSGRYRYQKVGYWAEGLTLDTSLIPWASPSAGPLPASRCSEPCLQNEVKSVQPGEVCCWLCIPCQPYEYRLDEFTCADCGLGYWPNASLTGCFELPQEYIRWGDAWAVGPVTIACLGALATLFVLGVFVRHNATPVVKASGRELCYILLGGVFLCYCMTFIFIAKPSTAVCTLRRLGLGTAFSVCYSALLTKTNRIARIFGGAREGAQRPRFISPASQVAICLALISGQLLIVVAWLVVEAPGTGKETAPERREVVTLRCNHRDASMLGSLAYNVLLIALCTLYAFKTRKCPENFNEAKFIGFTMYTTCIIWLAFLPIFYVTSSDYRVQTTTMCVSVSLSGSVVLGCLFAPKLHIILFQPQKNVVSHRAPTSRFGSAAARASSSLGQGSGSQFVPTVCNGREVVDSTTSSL

Row | Structure (SMILES) | IC50
1 | Cc1cc(-c2nc(-c3ccc(Cl)c(F)c3)n3c2CCO[C@H](C)C3)ccn1 [Example 58] | 41.8 nM
2 | COc1ccc(-c2nc(-c3ccnc(C)c3)c3n2C[C@@H](C)OCC3)cc1F [Example 60] | 119 nM
3 | CCOc1ccc(-c2nc(-c3cc(C)nc(C)c3)c3n2C[C@@H](C)OCC3)cc1Cl [Example 34, (R)-3-(3-chloro-4-ethoxyphenyl)-1-(2,6-dimethylpyridin-4-yl)-6-methyl-5,6,8,9-tetrahydroimidazo[1,5-d][1,4]oxazepine] | 2.8 nM
4 | Cc1cc(-c2nc(-c3ccc(OC(F)F)c(C)c3)n3c2CCO[C@H](CF)C3)cc(C)n1 [Example 27, (S)-3-(4-(difluoromethoxy)-3-methylphenyl)-1-(2,6-dimethylpyridin-4-yl)-6-(fluoromethyl)-5,6,8,9-tetrahydroimidazo[1,5-d][1,4]oxazepine] | 3.5 nM
5 | Cc1cc(-c2nc(-c3ccc(C(F)(F)F)c(F)c3)n3c2CCO[C@H](C)C3)cc(C)n1 [Example 134] | 27.8 nM
6 | COc1cc(-c2nc(-c3cc(C)nc(C(F)F)c3)c3n2C[C@@H](CF)OCC3)ccc1C(F)(F)F [Example 31, (S)-1-(2-(difluoromethyl)-6-methylpyridin-4-yl)-6-(fluoromethyl)-3-(3-methoxy-4-(trifluoromethyl)phenyl)-5,6,8,9-tetrahydroimidazo[1,5-d][1,4]oxazepine] | 7.9 nM
7 | Cc1cc(-c2nc(-c3ccc(Cl)c(Cl)c3)n3c2CCO[C@H](C)C3)cc(C)n1 [Example 65] | 14 nM
8 | Cc1cc(-c2nc(-c3ccc(Cl)c(F)c3)n3c2CCOCC3)cc(C)n1 [Example 105] | 92.1 nM
9 | Cc1cc(-c2nc(-c3ccc(OC4CC4)c(C)c3)n3c2CCO[C@H](C)C3)cc(C)n1 [Example 20, (R)-3-(4-cyclopropoxy-3-methylphenyl)-1-(2,6-dimethylpyridin-4-yl)-6-methyl-5,6,8,9-tetrahydroimidazo[1,5-d][1,4]oxazepine] | 3.4 nM
10 | CCOc1cc(-c2nc(-c3cc(C)nc(C)c3)c3n2CCOCC3)ccc1Cl [Example 102] | 22.7 nM
11 | COc1cc(-c2nc(-c3cc(C)nc(C)c3)c3n2C[C@@H](CF)OCC3)ccc1C(F)(F)F [Example 29, (S)-1-(2,6-dimethylpyridin-4-yl)-6-(fluoromethyl)-3-(3-methoxy-4-(trifluoromethyl)phenyl)-5,6,8,9-tetrahydroimidazo[1,5-d][1,4]oxazepine] | 3.8 nM
12 | Cc1cc(-c2nc(-c3ccc(OC(F)F)c(C)c3)n3c2CCO[C@H](C)C3)ccn1 [Example 15, (R)-3-(4-(difluoromethoxy)-3-methylphenyl)-6-methyl-1-(2-methylpyridin-4-yl)-5,6,8,9-tetrahydroimidazo[1,5-d][1,4]oxazepine] | 7.4 nM
13 | COc1cc(-c2nc(-c3ccnc(C)c3)c3n2C[C@@H](C)OCC3)ccc1C [Example 55] | 21.9 nM

Same assay, conditions: cell membrane fraction of HEK293 cells stably expressing human mGluR2; glutamic acid 10 μM; inhibition of specific [35S]GTPγS binding

Row | Structure (SMILES) | IC50
14 | Cc1cc(-c2nc(-c3ccc(OC(F)F)c(F)c3)n3c2CCO[C@H](C)C3)cc(C)n1 [Example 181] | 16.1 nM
15 | COc1cc(-c2nc(-c3cc(C)nc(C(F)F)c3)c3n2C[C@@H](C)OCC3)ccc1C(F)F [Example 189] | 15.1 nM
16 | Cc1cc(-c2nc(-c3ccc(OC(F)(F)F)c(C#N)c3)n3c2CCO[C@H](CF)C3)ccn1 [Example 196] | 3.8 nM
17 | Cc1cc(-c2nc(-c3ccc(F)c(OC(F)F)c3)n3c2CCO[C@H](C)C3)ccn1 [Example 185] | 19.5 nM
18 | Cc1cc(-c2nc(-c3ccc(C(F)F)c(Cl)c3)n3c2CCO[C@H](C)C3)cc(C)n1 [Example 146] | 22.2 nM
19 | Cc1cc(-c2nc(-c3ccc(OC(F)F)c(C)c3)n3c2CCO[C@H](CF)C3)cc(C(F)F)n1 [Example 188] | 20.8 nM
20 | Cc1cc(-c2nc(-c3ccc(OC(F)(F)F)c(C#N)c3)n3c2CCO[C@H](CF)C3)cc(C)n1 [Example 195] | 3.7 nM
21 | Cc1cc(-c2nc(-c3ccc(OC(F)F)c(CF)c3)n3c2CCO[C@H](C)C3)cc(C)n1 [Example 234] | 1.9 nM
22 | CCOc1ccc(-c2nc(-c3cc(C)nc(C)c3)c3n2CCOCC3)cc1Cl [Example 216] | 48 nM
